What was measured:
nude mice [1] = conditions: single bolus toxicity; NCI data base; cited from earlier work
[2] = tested on: human HepG2 flank tumours; assay: Efficacy in vivo: antitumour activity against subcutaneous human HepG2 flank tumours in nude mice (Example 20); parameters: species or system human tumour in nude mice; conditions: for Average tumour size (at sacrifice): control 10.4; for Average tumour size (at sacrifice) / Number of mice surviving after tumour innoculation, day 17 / Number of mice surviving after tumour innoculation, day 25 / Number of mice surviving after tumour innoculation, day 30 / appearance of treated animals / toxic side effects to the animals / rate of disease progression in treated animals / survival time of treated mice over untreated animals: 1300 mg/kg; for Number of mice surviving after tumour innoculation, day 0: day 0 after tumour inoculation; for Number of mice surviving after tumour innoculation, day 17: day 17 after tumour inoculation; for Number of mice surviving after tumour innoculation, day 25: day 25 after tumour inoculation; for Number of mice surviving after tumour innoculation, day 30: day 30 after tumour inoculation
Experimental: Nude mice were inoculated with subcutaneous human HepG2 flank tumours to determine the antitumour activity of Compound 1 in vivo. After allowing the tumours to develop for the first seven days, we attempted to prevent tumour progression by seven ip treatments every 48 hours at doses of 1300 mg/kg.

nude mice [3] = conditions: mouse, in vivo, ip
Experimental: The toxicity of Compound 1 (as described in Example 1) relative to 5-FU was determined in nude mice. Clinical grade 5-FU was used to provide a point of comparison with other toxicity studies in the literature. Animals were injected six times ip, in groups of 5, every 48 hours, with various doses of 5-FU or Compound 1.

[4] = seven ip treatments every 48 hours

For `O=c1[nH]cc(F)c(=O)[nH]1` [Compound 5-FU, 5-Fluorouracil, reference compound], the LD10 (nude mice [1]) is listed as 165 mg/kg, the LD50 (nude mice [1]) is listed as 360 mg/kg and the “Average tumour size (at sacrifice)” value [2, 4] is listed as 10.2. For the same compound, the “Number of mice surviving after tumour innoculation, day 0” value (“Number of mice surviving … day 0” below) [2] was 5 mice, the “Number of mice surviving after tumour innoculation, day 17” value (from here on “Number of mice surviving … day 17”) [2, 4] was 3 mice and the “Number of mice surviving after tumour innoculation, day 25” value (“Number of mice surviving … day 25” below) [2, 4] was 2 mice. For the same compound, the “Number of mice surviving after tumour innoculation, day 30” value (shortened to “Number of mice surviving … day 30”) [2, 4] was 0 mice.

With “1-β-L-Galactopyranosyl-5-fluorouracil and 1 -α-L-Galactopyranosyl-5-fluorouracil [Compound 2]” the “Average tumour size (at sacrifice)” value [2, 4] was 5.6, the “Number of mice surviving … day 0” value [2] was 5 mice and the “Number of mice surviving … day 17” value [2, 4] was 5 mice. The “Number of mice surviving … day 25” value [2, 4] was 3 mice, the “Number of mice surviving … day 30” value [2, 4] was 2 mice and the “appearance of treated animals” value ([2]; in vivo, ip) was “very healthy appearance”. For the same compound, the “toxic side effects to the animals” value ([2]; in vivo, ip) was “without causing any toxic side effects”, the “rate of disease progression in treated animals” value (“rate of disease progression” for short) [2, 4] was “significantly slowed the rate by which the disease progressed” and the “survival time of treated mice over untreated animals” value [2, 4] was “increased survival time”.

In the case of `CC(=O)N[C@@H]1[C@@H](O)[C@@H](O)[C@@H](CO)O[C@H]1n1cc(F)c(=O)[nH]c1=O` [Compound 10, 1-(β-D-2-Deoxy-2-N-acetylgalactopyranosyl)-5-fluorouracil], the “Average tumour size (at sacrifice)” value [2, 4] is reported as 9, the “Number of mice surviving … day 0” value [2] is reported as 5 mice and the “Number of mice surviving … day 17” value [2, 4] is reported as 3 mice. For the same compound, the “Number of mice surviving … day 25” value [2, 4] was 2 mice, the “Number of mice surviving … day 30” value [2, 4] was 1 mice and the “appearance of treated animals” value [2, 4] was “very healthy appearance”. The “rate of disease progression” value [2, 4] was “significantly slowed the rate by which the disease progressed”, the “survival time of treated mice over untreated animals” value [2, 4] was “increased survival time” and the “toxic side effects to the animals” value [2, 4] was “without causing any toxic side effects”.

In the case of “1-(β-L-2-Arabinopyranosyl)-5-fluorouracil and 1-(α-L-2-Arabinopyranosyl)-5-fluorouracil [Compound 6]”, the “Average tumour size (at sacrifice)” value [2, 4] is reported as 6.2, the “Number of mice surviving … day 0” value [2] is reported as 5 mice and the “Number of mice surviving … day 17” value [2, 4] is reported as 4 mice. For the same compound, the “Number of mice surviving … day 25” value [2, 4] was 2 mice, the “Number of mice surviving … day 30” value [2, 4] was 2 mice and the “toxic side effects to the animals” value ([2]; in vivo, ip) was “without causing any toxic side effects”. The “appearance of treated animals” value [2, 4] was “very healthy appearance”, the “rate of disease progression” value [2, 4] was “significantly slowed the rate by which the disease progressed” and the “survival time of treated mice over untreated animals” value [2, 4] was “increased survival time”.

With “1-β-D-Galactopyranosyl-5-fluorouracil and 1-α-D-Galactopyranosyl-5-fluorouracil [Compound 1]” the “MAD (maximal achievable dose)” value (nude mice [3]) was 1300 mg/kg, the “Average tumour size (at sacrifice)” value [2, 4] was 9.4 and the “Number of mice surviving … day 0” value [2] was 5 mice. The “Number of mice surviving … day 17” value [2, 4] was 3 mice, the “Number of mice surviving … day 25” value [2, 4] was 2 mice and the “Number of mice surviving … day 30” value [2, 4] was 1 mice. The “appearance of treated animals” value ([2]; in vivo, ip) was “very healthy appearance”, the “toxic side effects to the animals” value ([2]; in vivo, ip) was “without causing any toxic side effects” and the “rate of disease progression” value [2, 4] was “significantly slowed the rate by which the disease progressed”. For the same compound, the “survival time of treated mice over untreated animals” value [2, 4] was “increased survival time”.

Reference: patent US5945406A, “Therapeutic compounds with pyrimidine base” (Oxford Glycosciences (UK) Ltd., priority 1995, dated 1999)
